In experiment [1] the target is T1, Tyrosine-protein kinase Mer (Homo sapiens) (UniProt Q12866).
T1 sequence (whole entry): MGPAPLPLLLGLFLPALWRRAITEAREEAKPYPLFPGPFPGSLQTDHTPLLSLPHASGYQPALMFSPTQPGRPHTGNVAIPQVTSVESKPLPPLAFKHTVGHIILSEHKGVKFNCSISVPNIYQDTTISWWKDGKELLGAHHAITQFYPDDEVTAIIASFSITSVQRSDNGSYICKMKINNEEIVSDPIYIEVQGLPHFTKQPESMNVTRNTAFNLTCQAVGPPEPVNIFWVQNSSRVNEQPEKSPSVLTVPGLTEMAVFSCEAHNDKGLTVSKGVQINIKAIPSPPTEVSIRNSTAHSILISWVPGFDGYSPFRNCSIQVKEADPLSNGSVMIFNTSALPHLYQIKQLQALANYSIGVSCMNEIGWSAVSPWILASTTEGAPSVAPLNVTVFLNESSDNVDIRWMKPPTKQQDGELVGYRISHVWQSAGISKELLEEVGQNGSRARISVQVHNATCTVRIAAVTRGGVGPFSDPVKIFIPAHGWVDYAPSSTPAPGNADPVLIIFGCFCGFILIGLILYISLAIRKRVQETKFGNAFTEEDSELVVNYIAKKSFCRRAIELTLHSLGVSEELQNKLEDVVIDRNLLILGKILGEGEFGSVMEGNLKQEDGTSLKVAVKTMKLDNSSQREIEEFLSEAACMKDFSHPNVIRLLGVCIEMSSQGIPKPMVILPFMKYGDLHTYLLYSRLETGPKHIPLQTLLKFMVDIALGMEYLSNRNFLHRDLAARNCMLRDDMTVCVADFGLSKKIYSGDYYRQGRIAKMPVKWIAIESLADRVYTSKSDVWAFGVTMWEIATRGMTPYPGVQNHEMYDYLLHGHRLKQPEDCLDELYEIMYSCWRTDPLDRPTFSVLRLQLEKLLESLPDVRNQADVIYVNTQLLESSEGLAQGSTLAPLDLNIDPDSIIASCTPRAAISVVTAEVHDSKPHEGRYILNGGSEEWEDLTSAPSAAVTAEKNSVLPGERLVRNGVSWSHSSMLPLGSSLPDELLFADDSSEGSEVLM
The experiment can be described thus: MERTK SGC Tm panel (DSF). The following applies: for ΔTm: Compound concentration 10.0 uM.

Experiment [2] deals with Glycogen synthase kinase-3 beta (Homo sapiens) (UniProt P49841). The experiment can be described thus: GSK3B SGC Tm panel (DSF). The note with it: for ΔTm: Compound concentration 10.0 uM.
Chain of Glycogen synthase kinase-3 beta (Homo sapiens) (P49841 whole entry, looked up): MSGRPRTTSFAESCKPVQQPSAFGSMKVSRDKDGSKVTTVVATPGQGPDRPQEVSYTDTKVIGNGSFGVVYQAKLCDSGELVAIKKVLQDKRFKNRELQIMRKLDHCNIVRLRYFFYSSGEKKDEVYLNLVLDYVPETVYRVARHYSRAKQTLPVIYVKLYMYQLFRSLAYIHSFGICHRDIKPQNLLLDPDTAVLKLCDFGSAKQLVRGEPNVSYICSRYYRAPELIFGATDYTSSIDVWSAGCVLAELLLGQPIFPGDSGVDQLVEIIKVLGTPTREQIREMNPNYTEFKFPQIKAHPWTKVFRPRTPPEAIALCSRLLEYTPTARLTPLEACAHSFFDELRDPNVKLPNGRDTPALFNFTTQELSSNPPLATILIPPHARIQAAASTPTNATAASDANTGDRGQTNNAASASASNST
Experiment [3] addresses Mitogen-activated protein kinase 8 (Homo sapiens) (UniProt P45983). Put plainly: MAPK8 SGC Tm panel (DSF). The following applies: for ΔTm: Compound concentration 10.0 uM.
Experiment [4] deals with Vascular endothelial growth factor receptor 1 (Homo sapiens) (UniProt P17948). Put plainly: FLT1 SGC Tm panel (DSF). The following applies: for ΔTm: Compound concentration 10.0 uM.
Chain of Vascular endothelial growth factor receptor 1 (Homo sapiens) (P17948 whole entry, canonical isoform): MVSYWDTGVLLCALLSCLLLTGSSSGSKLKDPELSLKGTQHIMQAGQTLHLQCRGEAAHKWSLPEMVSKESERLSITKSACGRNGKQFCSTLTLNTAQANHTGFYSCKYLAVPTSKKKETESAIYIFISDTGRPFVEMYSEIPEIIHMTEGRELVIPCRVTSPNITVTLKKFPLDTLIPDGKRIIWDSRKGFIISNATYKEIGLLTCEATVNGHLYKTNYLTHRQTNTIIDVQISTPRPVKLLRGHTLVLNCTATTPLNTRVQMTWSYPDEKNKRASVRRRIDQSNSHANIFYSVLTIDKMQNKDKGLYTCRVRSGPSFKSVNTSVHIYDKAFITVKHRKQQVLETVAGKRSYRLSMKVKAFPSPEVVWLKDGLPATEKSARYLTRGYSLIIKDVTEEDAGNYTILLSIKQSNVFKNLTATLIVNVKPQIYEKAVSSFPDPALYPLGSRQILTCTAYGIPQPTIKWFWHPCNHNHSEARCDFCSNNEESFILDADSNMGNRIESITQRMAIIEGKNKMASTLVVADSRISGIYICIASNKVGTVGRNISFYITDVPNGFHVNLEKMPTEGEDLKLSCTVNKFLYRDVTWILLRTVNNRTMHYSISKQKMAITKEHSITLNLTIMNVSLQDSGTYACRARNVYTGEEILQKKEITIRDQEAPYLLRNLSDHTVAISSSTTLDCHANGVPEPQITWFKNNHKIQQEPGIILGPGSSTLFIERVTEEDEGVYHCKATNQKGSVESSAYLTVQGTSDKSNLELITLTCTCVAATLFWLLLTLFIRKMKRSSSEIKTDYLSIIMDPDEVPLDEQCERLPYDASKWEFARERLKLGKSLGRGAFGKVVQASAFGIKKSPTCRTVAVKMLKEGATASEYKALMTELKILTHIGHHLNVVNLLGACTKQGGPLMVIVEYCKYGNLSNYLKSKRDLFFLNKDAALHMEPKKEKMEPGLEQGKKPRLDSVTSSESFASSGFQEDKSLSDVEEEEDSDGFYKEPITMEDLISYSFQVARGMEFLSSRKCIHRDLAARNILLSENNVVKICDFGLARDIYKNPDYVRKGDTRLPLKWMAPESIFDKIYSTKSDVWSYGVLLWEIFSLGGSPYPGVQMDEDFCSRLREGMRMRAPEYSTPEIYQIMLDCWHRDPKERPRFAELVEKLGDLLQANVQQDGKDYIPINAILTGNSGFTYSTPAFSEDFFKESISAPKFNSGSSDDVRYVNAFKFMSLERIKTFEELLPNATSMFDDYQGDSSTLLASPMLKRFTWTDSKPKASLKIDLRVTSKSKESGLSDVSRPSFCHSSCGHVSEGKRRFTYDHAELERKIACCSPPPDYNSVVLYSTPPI
Experiment [5] has as its target T2, Phosphorylase b kinase gamma catalytic chain, liver/testis isoform (Homo sapiens) (UniProt P15735).
T2 sequence (whole entry): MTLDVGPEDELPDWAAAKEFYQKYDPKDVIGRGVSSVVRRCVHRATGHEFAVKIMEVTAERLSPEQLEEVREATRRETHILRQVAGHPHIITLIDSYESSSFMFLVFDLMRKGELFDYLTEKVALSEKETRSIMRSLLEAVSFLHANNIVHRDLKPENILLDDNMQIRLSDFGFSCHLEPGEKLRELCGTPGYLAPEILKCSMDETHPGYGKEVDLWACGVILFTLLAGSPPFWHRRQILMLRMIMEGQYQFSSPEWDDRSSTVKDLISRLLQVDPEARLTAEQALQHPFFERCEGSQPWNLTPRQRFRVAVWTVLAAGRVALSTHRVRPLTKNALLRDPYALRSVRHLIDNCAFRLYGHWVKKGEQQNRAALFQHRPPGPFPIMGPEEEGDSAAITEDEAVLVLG
The experiment can be described thus: PHKG2 SGC Tm panel (DSF). The following applies: for ΔTm: Compound concentration 10.0 uM.

Experiment [6] addresses Ribosomal protein S6 kinase alpha-1 (Homo sapiens) (UniProt Q15418). Put plainly: RPS6KA1 SGC Tm panel (DSF). The following applies: for ΔTm: Compound concentration 10.0 uM.
The target of experiment [7] is BMP-2-inducible protein kinase (Homo sapiens) (UniProt Q9NSY1). The experiment can be described thus: BMP2K SGC Tm panel (DSF). The note with it: for ΔTm: Compound concentration 10.0 uM.
Chain of BMP-2-inducible protein kinase (Homo sapiens) (Q9NSY1 whole entry, looked up): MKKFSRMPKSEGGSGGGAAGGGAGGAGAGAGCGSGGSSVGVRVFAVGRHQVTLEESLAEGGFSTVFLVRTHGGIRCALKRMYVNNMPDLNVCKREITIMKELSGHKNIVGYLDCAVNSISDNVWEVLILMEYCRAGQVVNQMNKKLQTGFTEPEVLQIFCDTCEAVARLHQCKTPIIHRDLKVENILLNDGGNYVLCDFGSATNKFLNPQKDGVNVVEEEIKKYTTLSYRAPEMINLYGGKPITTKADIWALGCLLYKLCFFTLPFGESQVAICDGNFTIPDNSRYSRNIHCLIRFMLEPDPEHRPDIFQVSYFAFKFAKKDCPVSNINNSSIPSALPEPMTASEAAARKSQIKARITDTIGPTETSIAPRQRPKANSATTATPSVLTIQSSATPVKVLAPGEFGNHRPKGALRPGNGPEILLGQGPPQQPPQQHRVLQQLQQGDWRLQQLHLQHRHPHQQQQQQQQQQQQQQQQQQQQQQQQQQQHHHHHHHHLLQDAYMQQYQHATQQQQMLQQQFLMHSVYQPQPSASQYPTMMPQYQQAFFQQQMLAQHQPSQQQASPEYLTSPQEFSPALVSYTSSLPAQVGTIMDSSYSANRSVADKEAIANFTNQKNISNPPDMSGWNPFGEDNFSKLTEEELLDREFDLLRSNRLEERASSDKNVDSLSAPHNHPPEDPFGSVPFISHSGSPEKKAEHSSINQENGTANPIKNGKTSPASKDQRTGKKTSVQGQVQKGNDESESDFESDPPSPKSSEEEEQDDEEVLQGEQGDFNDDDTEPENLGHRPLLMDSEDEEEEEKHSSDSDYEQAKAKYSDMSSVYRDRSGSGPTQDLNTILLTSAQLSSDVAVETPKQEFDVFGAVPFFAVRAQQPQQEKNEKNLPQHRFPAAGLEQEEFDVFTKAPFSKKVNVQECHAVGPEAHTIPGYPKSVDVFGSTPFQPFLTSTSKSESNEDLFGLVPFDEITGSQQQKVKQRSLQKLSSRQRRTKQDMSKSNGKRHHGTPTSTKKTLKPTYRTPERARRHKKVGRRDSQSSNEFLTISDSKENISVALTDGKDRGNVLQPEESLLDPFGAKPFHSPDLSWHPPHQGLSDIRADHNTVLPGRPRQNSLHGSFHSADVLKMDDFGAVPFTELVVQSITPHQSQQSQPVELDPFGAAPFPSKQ
Experiment [8] deals with T3, Aurora kinase A (Homo sapiens) (UniProt O14965).
T3 sequence (whole entry): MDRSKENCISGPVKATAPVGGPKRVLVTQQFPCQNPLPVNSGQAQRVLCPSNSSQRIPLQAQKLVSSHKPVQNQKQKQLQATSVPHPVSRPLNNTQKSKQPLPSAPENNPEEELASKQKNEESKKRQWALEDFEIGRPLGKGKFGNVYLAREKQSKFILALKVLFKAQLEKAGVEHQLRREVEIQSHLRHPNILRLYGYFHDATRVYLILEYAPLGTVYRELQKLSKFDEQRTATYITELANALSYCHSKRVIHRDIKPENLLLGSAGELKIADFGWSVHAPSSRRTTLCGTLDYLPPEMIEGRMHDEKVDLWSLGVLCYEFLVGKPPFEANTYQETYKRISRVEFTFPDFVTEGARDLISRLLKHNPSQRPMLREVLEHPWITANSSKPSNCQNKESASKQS
Put plainly: STK6 SGC Tm panel (DSF). The following applies: for ΔTm: Compound concentration 10.0 uM.

In experiment [9] the target is Aurora kinase B (Homo sapiens) (UniProt Q96GD4). Put plainly: AURKB SGC Tm panel (DSF). The note with it: for ΔTm: Compound concentration 10.0 uM.
Chain of Aurora kinase B (Homo sapiens) (Q96GD4 whole entry): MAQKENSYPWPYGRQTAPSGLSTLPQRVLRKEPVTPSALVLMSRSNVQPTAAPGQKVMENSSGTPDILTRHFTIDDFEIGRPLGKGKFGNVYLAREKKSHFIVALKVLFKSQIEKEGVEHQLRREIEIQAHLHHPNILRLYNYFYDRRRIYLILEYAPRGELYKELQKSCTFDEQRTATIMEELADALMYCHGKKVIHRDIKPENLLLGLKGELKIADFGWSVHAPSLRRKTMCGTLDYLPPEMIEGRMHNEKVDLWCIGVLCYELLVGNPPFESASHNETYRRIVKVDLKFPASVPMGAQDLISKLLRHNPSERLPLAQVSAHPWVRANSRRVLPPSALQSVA
Experiment [10] has as its target 5-hydroxytryptamine receptor 6 (Homo sapiens) (UniProt P50406). The following applies: Compound concentration 10.0 uM.
For experiment [11], the target named is Sodium-dependent serotonin transporter (Homo sapiens) (UniProt P31645). The note with it: Compound concentration 10.0 uM.
Chain of Sodium-dependent serotonin transporter (Homo sapiens) (P31645 whole entry, looked up): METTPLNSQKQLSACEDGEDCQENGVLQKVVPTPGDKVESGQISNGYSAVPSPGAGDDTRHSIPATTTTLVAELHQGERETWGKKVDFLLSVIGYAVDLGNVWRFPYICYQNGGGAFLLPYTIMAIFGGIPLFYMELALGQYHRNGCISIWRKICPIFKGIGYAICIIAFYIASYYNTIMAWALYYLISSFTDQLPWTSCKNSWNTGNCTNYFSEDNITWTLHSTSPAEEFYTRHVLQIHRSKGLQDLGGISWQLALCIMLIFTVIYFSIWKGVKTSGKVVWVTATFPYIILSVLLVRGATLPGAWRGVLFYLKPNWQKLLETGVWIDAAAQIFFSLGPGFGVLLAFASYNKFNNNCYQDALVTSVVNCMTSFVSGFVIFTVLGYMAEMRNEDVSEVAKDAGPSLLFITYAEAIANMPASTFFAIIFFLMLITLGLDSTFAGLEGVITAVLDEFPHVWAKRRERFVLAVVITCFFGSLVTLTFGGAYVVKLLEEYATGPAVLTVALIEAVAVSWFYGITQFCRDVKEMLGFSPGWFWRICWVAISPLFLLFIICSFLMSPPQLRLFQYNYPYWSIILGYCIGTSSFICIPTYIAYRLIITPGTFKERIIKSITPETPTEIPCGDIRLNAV

Molecules are shown by their SMILES.

Chain of Mitogen-activated protein kinase 8 (Homo sapiens) (P45983 whole entry): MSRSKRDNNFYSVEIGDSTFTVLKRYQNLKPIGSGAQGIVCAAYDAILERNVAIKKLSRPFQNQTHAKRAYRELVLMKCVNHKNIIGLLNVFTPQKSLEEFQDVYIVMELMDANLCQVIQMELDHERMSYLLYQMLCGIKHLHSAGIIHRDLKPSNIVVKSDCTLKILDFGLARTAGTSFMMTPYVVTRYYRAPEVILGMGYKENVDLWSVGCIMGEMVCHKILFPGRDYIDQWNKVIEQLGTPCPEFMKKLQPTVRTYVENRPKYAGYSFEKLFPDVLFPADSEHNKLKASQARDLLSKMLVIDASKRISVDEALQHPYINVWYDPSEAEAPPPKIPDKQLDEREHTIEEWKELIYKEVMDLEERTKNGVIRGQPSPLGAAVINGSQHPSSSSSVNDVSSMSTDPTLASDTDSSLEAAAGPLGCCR
Chain of Ribosomal protein S6 kinase alpha-1 (Homo sapiens) (Q15418 whole entry): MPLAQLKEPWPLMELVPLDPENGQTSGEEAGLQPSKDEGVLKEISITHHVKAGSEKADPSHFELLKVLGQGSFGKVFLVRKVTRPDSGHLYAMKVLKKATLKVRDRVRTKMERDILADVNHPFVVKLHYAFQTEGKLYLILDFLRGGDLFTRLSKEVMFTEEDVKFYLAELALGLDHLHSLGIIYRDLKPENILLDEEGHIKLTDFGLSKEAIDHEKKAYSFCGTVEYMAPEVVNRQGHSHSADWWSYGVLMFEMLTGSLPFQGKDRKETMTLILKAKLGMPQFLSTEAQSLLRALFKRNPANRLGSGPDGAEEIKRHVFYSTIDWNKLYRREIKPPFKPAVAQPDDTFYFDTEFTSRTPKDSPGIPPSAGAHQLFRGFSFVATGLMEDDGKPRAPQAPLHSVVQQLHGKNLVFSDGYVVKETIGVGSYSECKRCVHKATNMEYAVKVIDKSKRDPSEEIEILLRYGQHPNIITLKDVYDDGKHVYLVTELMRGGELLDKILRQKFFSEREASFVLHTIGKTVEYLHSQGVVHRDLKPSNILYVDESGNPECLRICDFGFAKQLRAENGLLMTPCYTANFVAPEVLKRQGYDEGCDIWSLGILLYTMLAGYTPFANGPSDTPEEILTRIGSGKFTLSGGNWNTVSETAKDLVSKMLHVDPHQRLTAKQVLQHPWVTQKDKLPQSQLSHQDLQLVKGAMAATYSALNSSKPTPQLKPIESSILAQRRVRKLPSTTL

The term inhibition denotes the share of the control response that was lost under treatment. `COC[C@H](NC(=O)c1ccn(S(C)(=O)=O)c1)C(=O)Nc1nc(-c2cccc(-c3ccn(C)n3)c2)cs1`: the delta Tm Staurosporine positive control in experiment [1] is 6.35; in [2], 12.1; in experiment [3], 7.87; in [4], 11.1; in [5] it was 22.2; in [6] it was 3.76. In addition, the delta Tm Staurosporine positive control was determined as 18.7 in experiment [7], 16.5 in experiment [8] and 13.6 in [9]. Moreover, the ΔTm in [1] is 0.54; in experiment [2], 0.242; in [3], 0.206; in experiment [4], -0.0497; in experiment [5], 0.157; in [6], 0.166. In addition, the ΔTm in experiment [7] was 0.214; in [8], 0.943; in experiment [9], 1.29. The inhibition in experiment [10] was 8.9%; in [11], 27.5%.

With `C[C@H](NC(=O)c1cn(C2(C#N)CC2)cn1)C(=O)Nc1nc(-c2cccc(-c3ccn(C)n3)c2)cs1`, the delta Tm Staurosporine positive control in experiment [1] is 6.35; in experiment [2], 12.1; in [3] it was 7.87; in experiment [4], 11.1; in experiment [5] it was 22.2; in [6], 3.76. Further, the delta Tm Staurosporine positive control in experiment [7] amounted to 18.7; in experiment [8], 16.5; in experiment [9], 13.6. Moreover, the ΔTm in [1] is 0.284; in [2], 0.703; in experiment [3], 0.458; in experiment [4] it was -0.217; in experiment [5] it was 0.17; in experiment [6], 0.223. Also, the results for the ΔTm in experiment [7], in [8] and in experiment [9] were 0.335, 0.205 and 0.802, respectively. In addition, the inhibition in experiment [10] was 16.4%; in experiment [11], 17.3%.

For the origin of these results see ChEMBL document CHEMBL5303766, “Data for DCP probe FHT-2344” (2022).
